# US20190374526A1, “Substituted Heterocyclic Compounds as Inhibitors of PRDM9” (Merck Sharp & Dohme Corp., priority 2018, published 2019)
# Molecular target: T1, hPRDM9 (amino acids 195-385) (Homo sapiens, UniProt Q9NQV7)
# T1 construct: 1.25 nM hPRDM9 (amino acids 195-385)
# T1 sequence (Q9NQV7 195-385): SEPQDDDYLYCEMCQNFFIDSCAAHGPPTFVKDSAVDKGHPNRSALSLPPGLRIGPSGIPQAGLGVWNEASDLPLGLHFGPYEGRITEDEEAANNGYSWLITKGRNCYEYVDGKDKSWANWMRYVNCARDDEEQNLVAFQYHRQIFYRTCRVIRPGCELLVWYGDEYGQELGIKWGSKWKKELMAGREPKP
# Assay: PRDM9 biochemical assay (radiometric, 3[H] methyl transfer from SAM to biotinylated histone H3 peptide)
# Details: 1 nM hPRDM9, 1 μM biotinylated H3(1-25)K4 peptide, 5 μM 3[H]-SAM, 55 μM un-labeled SAM, 25° C., 30 minutes
# Description: The PRDM9 biochemical assay was carried out using a radiometric format involving the transfer of ^3[H] methyl group from S-adenosyl methionine (SAM) to a biotinylated histone H3 peptide (H3(1-25)K4). 10 mM compounds in DMSO were diluted 20 fold in assay buffer (10 mM Tris-HCl, pH 8.5, 10 mM DTT, and 0.01% Triton X-100) before adding […] to a well in a 384 well polypropylene microplate plate and adding 8 μl of reaction mix (1.25 nM hPRDM9 (amino acids 195-385), 1.25 μM biotinylated H3 peptide in assay buffer). The ^3[H]-SAM and cold SAM stock solutions were diluted to 50 μM and 550 μM respectively in assay buffer before aliquoting 1 μl of 50 μM ^3[H]-SAM, 550 μM SAM into each well to initiate the reaction. The assay was performed at 25° C. at the final concentrations of 1 nM hPRDM9, 1 μM peptide, 5 μM ^3[H]-SAM, and 55 μM un-labeled SAM in assay buffer. The reaction was quenched after 30 minutes by adding 25 μl 7.5 M Guanidine-HCl. Quenched reactions were transferred to streptavidin coated Flashplates, diluted two fold in assay buffer, incubated for 1 hour, and read on a Perkin Elmer Topcount instrument. Compound activity was expressed relative to activity of 0.5% (v/v) DMSO treated samples and fit to a four parameter logistic equation to determine IC50 values.
row,SMILES,IC50 [µM]
1,COc1cc(OC)cc(-c2noc(N3CCN(CCO)C4(CCN(c5ccnc(C)c5)CC4)C3)n2)c1 [Compound 98],0.095
2,COc1cc(OC)cc(-c2noc(N3CCN(S(C)(=O)=O)C4(CCN(c5ccnc(C)c5)CC4)C3)n2)c1 [Compound 99],0.07
3,COc1cc(OC)cc(-c2noc(N3CCN(c4ccccc4)C4(CCN(c5ccnc(C)c5)CC4)C3)n2)c1 [Compound 100],0.14
4,COc1cc(OC)cc(-c2noc(N3CCN(C(=O)N(C)C)C4(CCN(c5ccnc(C)c5)CC4)C3)n2)c1 [Compound 101],0.45
5,COc1cc(OC)cc(-c2noc(N3CCN(C)C4(CCN(c5ccnc6ccccc56)CC4)C3)n2)c1 [Compound 102],4.4
6,"Cc1cc(N2CC3(CCCN(c4nc(-c5cc(Cl)cc(Cl)c5)no4)C3)C2)ccn1 [Compound 116, 3-(3,5-dichlorophenyl)-5-(2-(2-methylpyridin-4-yl)-2,6-diazaspiro[3.5]nonan-6-yl)-1,2,4-oxadiazole]",0.072
7,Cc1cc(N2CC3(CCCN(c4nc(-c5cccc(Br)c5)no4)C3)C2)ccn1 [Compound 117],2
8,Cc1cc(N2CC3(CCCN(c4nc(-c5cc(Cl)cc(Cl)c5)co4)C3)C2)ccn1 [Compound 118],16.6
9,Cc1cc(N2CC3(C2)CN(c2nc(-c4cc(Cl)cc(Cl)c4)no2)CCO3)ccn1 [Compound 119],0.3
10,Cc1cc(N2CC3(CCCN(c4cncc(-c5cc(Cl)cc(Cl)c5)n4)C3)C2)ccn1 [Compound 120],12.2
11,"Cc1cc(N2CC3(CCCN(c4onc(-c5cc(Cl)cc(Cl)c5)c4Br)C3)C2)ccn1 [Compound 121, 4-bromo-3-(3,5-dichlorophenyl)-5-(2-(2-methylpyridin-4-yl)-2,6-diazaspiro[3.5]nonan-6-yl)isoxazole]",13.7
12,"Cc1cc(N2CC3(CCCN(c4onc(-c5cc(Cl)cc(Cl)c5)c4-c4ccoc4)C3)C2)ccn1 [Compound 122, 3-(3,5-dichlorophenyl)-4-(furan-3-yl)-5-(2-(2-methylpyridin-4-yl)-2,6-diazaspiro[3.5]nonan-6-yl)isoxazole]",30.6
13,Cc1cc(N2CC3(CCCN(c4onc(-c5cc(Cl)cc(Cl)c5)c4-c4ccc(N)cc4)C3)C2)ccn1 [Compound 123],6.67
14,COc1ccccc1-c1c(-c2cc(Cl)cc(Cl)c2)noc1N1CCCC2(CN(c3ccnc(C)c3)C2)C1 [Compound 124],17.6
15,COc1ccc(-c2c(-c3cc(Cl)cc(Cl)c3)noc2N2CCCC3(CN(c4ccnc(C)c4)C3)C2)c(OC)c1 [Compound 125],25.1
16,"Cc1cc(N2CC3(CCCN(c4ccn(-c5cc(Cl)cc(Cl)c5)n4)C3)C2)ccn1 [Compound 126, 6-(1-(3,5-dichlorophenyl)-1H-pyrazol-3-yl)-2-(2-methylpyridin-4-yl)-2,6-diazaspiro[3.5]nonane]",11.1
17,"Cc1cc(N2CC3(CCCN(CC(C)C(=O)c4cc(Cl)cc(Cl)c4)C3)C2)ccn1 (centres unmarked) [Compound 127, 1-(3,5-dichlorophenyl)-2-methyl-3-(2-(2-methylpyridin-4-yl)-2,6-diazaspiro[3.5]nonan-6-yl)propan-1-one]",26.9
18,"Cc1cc(N2CC3(CCCN(c4cc(-c5cccc(F)c5F)n[nH]4)C3)C2)ccn1 [Compound 128, 6-(3-(2,3-difluorophenyl)-1H-pyrazol-5-yl)-2-(2-methylpyridin-4-yl)-2,6-diazaspiro[3.5]nonane]",23.7
19,"COC(=O)c1cccc(-c2cc(N3CCCC4(CN(c5ccnc(C)c5)C4)C3)on2)c1 [Compound 129, methyl 3-(5-(2-(2-methylpyridin-4-yl)-2,6-diazaspiro[3.5]nonan-6-yl)isoxazol-3-yl)benzoate]",19.1
20,"COC(=O)c1cccc(-c2cc(N3CCCC4(CN(c5ccnc(C)c5)C4)C3)[nH]n2)c1 [Compound 130, methyl 3-(5-(2-(2-methylpyridin-4-yl)-2,6-diazaspiro[3.5]nonan-6-yl)-1H-pyrazol-3-yl)benzoate]",24.3
21,"Cc1cc(N2CC3(CCCN(c4cc(-c5ccc(F)c(F)c5)n[nH]4)C3)C2)ccn1 [Compound 131, 6-(3-(3,4-difluorophenyl)-1H-pyrazol-5-yl)-2-(2-methylpyridin-4-yl)-2,6-diazaspiro[3.5]nonane]",23.1
22,"Cc1cc(N2CC3(CCCN(c4ccnc(-c5cc(Cl)cc(Cl)c5)c4)C3)C2)ccn1 [Compound 132, 6-(2-(3,5-dichlorophenyl)pyridin-4-yl)-2-(2-methylpyridin-4-yl)-2,6-diazaspiro[3.5]nonane]",5.46
23,"Cc1cc(N2CC3(CCCN(c4cc(-c5cccc(F)c5F)no4)C3)C2)ccn1 [Compound 133, 3-(2,3-difluorophenyl)-5-(2-(2-methylpyridin-4-yl)-2,6-diazaspiro[3.5]nonan-6-yl)isoxazole]",17
24,COc1cc(OC)cc(-c2noc(N3CCC4(CC5CCC(C4)N5c4ccnc(C)c4)C3)n2)c1 (centres unmarked) [Compound 158],3.81
25,COc1cc(OC)cc(-c2noc(N3CCN(C)C4(CCN(c5ccnc(C)c5)CC4)C3)n2)c1 [Compound 161],0.049

# More lines, now with the values ahead:
row,IC50 [µM],SMILES
1,34.6,"Cc1cc(N2CC3(CCCN(c4ccc5c(Cl)cc(Cl)cc5n4)C3)C2)ccn1 [Compound 134, 5,7-dichloro-2-(2-(2-methylpyridin-4-yl)-2,6-diazaspiro[3.5]nonan-6-yl)quinoline]"
2,21.1,"Cc1cc(N2CC3(CCCN(c4cc(-c5ccc(F)c(C(F)(F)F)c5)n[nH]4)C3)C2)ccn1 [Compound 135, 6-(3-(4-fluoro-3-(trifluoromethyl)phenyl)-1H-pyrazol-5-yl)-2-(2-methylpyridin-4-yl)-2,6-diazaspiro[3.5]nonane]"
3,16.5,"Cc1cc(N2CC3(CCCN(c4cc(-c5cc(F)cc(Cl)c5)n[nH]4)C3)C2)ccn1 [Compound 136, 6-(3-(3-chloro-5-fluorophenyl)-1H-pyrazol-5-yl)-2-(2-methylpyridin-4-yl)-2,6-diazaspiro[3.5]nonane]"
4,21.5,"Cc1cc(N2CC3(CCCN(c4cc(-c5cc(Cl)cc(Cl)c5)ccn4)C3)C2)ccn1 [Compound 137, 6-(4-(3,5-dichlorophenyl)pyridin-2-yl)-2-(2-methylpyridin-4-yl)-2,6-diazaspiro[3.5]nonane]"
5,4.8,"Cc1cc(N2CC3(CCCN(c4nc(-c5ccccc5)no4)C3)C2)ccn1 [Compound 138, 5-(2-(2-methylpyridin-4-yl)-2,6-diazaspiro[3.5]nonan-6-yl)-3-phenyl-1,2,4-oxadiazole]"
6,0.393,COc1cc(OC)cc(-c2noc(N3CCOC4(CN(c5ccnc(C)c5)C4)C3)n2)c1 [Compound 139]
7,0.203,COc1cccc(-c2noc(N3CCCC4(CN(c5ccnc(C)c5)C4)C3)n2)c1 [Compound 142]
8,≥ 50,Cc1cc(N2CC3(CCCN(c4nc(Cc5ccc(F)cc5)no4)C3)C2)ccn1 [Compound 143]
9,42.3,Cc1cc(N2CC3(CCCN(c4nc(-c5ccc(Cl)cc5)no4)C3)C2)ccn1 [Compound 144]
10,4.7,COc1ccc(-c2noc(N3CCCC4(CN(c5ccnc(C)c5)C4)C3)n2)cc1OC [Compound 145]
11,≥ 50,Cc1cc(N2CC3(CCCN(c4nc(C5CC5)no4)C3)C2)ccn1 [Compound 146]
12,0.263,Cc1cc(N2CC3(CCCN(c4nc(-c5cccc(Cl)c5)no4)C3)C2)ccn1 [Compound 147]
13,≥ 50,Cc1cc(N2CC3(CCCN(c4nc(-c5ccccc5Cl)no4)C3)C2)ccn1 [Compound 148]
14,0.066,COc1cc(OC)cc(-c2noc(N3CC4(CCC3=O)CCN(c3ccnc(C)c3)CC4)n2)c1 [Compound 150]
15,44.8,"COc1cccc(-c2noc(N3CC4(CCC3=O)CCN(c3ccnc(C)c3)CC4)n2)c1 [Compound 153, 2-(3-(3-methoxyphenyl)-1,2,4-oxadiazol-5-yl)-9-(2-methylpyridin-4-yl)-2,9-diazaspiro[5.5]undecan-3-one]"
16,3.45,"Cc1cc(NC2CC3(CCN(c4nc(-c5cc(Cl)cc(Cl)c5)no4)C3)C2)ccn1 (centres unmarked) [Compound 154, 6-(3-(3,5-dichlorophenyl)-1,2,4-oxadiazol-5-yl)-N-(2-methylpyridin-4-yl)-6-azaspiro[3.4]octan-2-amine]"
17,3.46,Cc1cc(NC2CC3(CCN(c4nc(-c5cc(Cl)cc(Cl)c5)no4)C3)C2)ccn1 (centres unmarked) [Compound 155]
18,16,Cc1cc(NC2CC23CCN(c2nc(-c4cc(Cl)cc(Cl)c4)no2)C3)ccn1 (centres unmarked) [Compound 156]
19,31,Cc1cc(NC2CC23CCN(c2nc(-c4cc(Cl)cc(Cl)c4)no2)C3)ccn1 (centres unmarked) [Compound 157]
20,0.35,COc1cc(OC)cc(-c2noc(N3CCO[C@]4(C[C@H]5CC[C@@H](C4)N5c4ccnc(C)c4)C3)n2)c1 [Compound 160]
21,0.47,COc1cc(OC)cc(-c2nnc(N3CCN(C)C4(CCN(c5ccnc(C)c5)CC4)C3)o2)c1 [Compound 162]
22,3.08,COc1cc(OC)cc(-c2noc(N3CC(C)(C)OC4(CN(c5ccnc(C)c5)C4)C3)n2)c1 [Compound 163]
